Biological target: T1, human recombinant SERT (HEK293-hSERT cells) (Homo sapiens, UniProt P31645)
T1 construct: expressed in transfected cells; host or cells: HEK293 (stably transfected), whole cells
Assay: hSERT neurotransmitter uptake assay
Type: cell-based
Settings: serotonin reuptake inhibition in HEK293-hSERT cells
Description: HEK293 cells stably-transfected with human recombinant SERT (HEK293-hSERT) were grown in Dulbecco's Modified Eagle's Medium supplemented with 10% dialyzed fetal bovine serum, 100 µg/ml penicillin, 100 µg/ml streptomycin, 2 mM L-glutamine, and 250 μg/ml of the aminoglycoside antibiotic G418. Cells were incubated in a 5% CO2, humidified incubator at 37° C.
In pre-incubation studies, test compound was added to cells for 30 minutes at 37° C. prior to the addition of fluorescent substrate. […] For real-time measurements, compounds were either preincubated (as above) or mixed with substrate prior to addition, and kinetic measurements, relative fluorescence units (RFU integrated over 0.5 ms),were made using a cycle time of 1 min.

T1 sequence (P31645 whole entry): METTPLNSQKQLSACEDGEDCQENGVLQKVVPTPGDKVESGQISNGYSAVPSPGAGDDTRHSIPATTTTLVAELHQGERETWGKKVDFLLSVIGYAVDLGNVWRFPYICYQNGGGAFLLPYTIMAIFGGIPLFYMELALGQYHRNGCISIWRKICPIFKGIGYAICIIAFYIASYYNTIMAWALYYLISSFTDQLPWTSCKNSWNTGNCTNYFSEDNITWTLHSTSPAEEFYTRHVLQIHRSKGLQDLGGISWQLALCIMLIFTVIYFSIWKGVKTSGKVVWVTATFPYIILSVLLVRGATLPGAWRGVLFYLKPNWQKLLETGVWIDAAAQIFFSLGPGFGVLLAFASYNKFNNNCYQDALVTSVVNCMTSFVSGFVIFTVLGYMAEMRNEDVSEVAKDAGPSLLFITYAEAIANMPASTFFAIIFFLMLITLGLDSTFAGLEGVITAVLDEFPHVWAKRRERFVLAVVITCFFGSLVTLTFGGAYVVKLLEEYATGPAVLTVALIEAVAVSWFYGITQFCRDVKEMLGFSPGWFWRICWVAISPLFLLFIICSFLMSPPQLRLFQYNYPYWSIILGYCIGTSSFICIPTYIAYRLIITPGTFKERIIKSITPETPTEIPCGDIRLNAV

SMILES	SERT pIC50
NC(=O)NS(=O)(=O)NC[C@@H](Oc1ccc(C(F)(F)F)cc1)[C@H]1CCNC1 [Example 3-10, N[(S)-2-(S)-pyrrolidin-3-yl-2-(4-trifluoromethylphenoxy)ethyl]sulfonylurea]	≧7.0

Same assay, conditions: serotonin reuptake inhibition in HEK293-hSERT cells; read-out: SERT pIC50 (converted)

SMILES	IC50 [nM]
CCS(=O)(=O)NC[C@@H](Oc1ccc(C(F)(F)F)cc1)[C@H]1CCNC1 [Example 3-5, Ethanesulfonic acid [(S)-2-(S)-pyrrolidin-3-yl-2-(4-trifluoromethylphenoxy)-ethyl]amide]	≤ 10
O=S(=O)(NC[C@@H](Oc1ccc(C(F)(F)F)cc1)[C@H]1CCNC1)N1CCOCC1 [Example 3-17, Morpholine-4-sulfonic acid [(S)-2-(S)-pyrrolidin-3-yl-2-(4-trifluoromethylphenoxy)ethyl]amide]	≤ 10
COc1ccc(S(=O)(=O)NCC(Oc2ccc(C(F)(F)F)cc2)C2CCNC2)cc1 [Example 3-23, 4-Methoxy-N-[(S)-2-(S)-pyrrolidin-3-yl-2-(4-trifluoromethylphenoxy)ethyl]bensenesulfonamide]	≤ 10
CNC(=O)c1cccc(S(=O)(=O)NCC(Oc2ccc(C(F)(F)F)cc2)C2CCNC2)c1 [Example 3-25, N-Methyl-3-[(S)-2-(S)--pyrrolidin-3-yl-2-(4-trifluoromethylphenoxy)ethylsulfamoyl]benamide]	≤ 10
Cn1cncc1S(=O)(=O)NC[C@@H](Oc1ccc(C(F)(F)F)cc1)[C@H]1CCNC1 [Example 3-14, 3-Methyl-3H-imidazole-4-sulfonic acid [(S)-2-(S)-pyrrolidin-3-yl-2-(4-trifluoromethylphenoxy)ethyl]amide]	≤ 100
CNS(=O)(=O)c1ccc(S(=O)(=O)NCC(Oc2ccc(C(F)(F)F)cc2)C2CCNC2)cc1 [Example 3-31, Benzene-1,4-disulfonic acid 1-methylamide 4-{[(S)-2-(S)-pyrrolidin-3-yl-2-(4-trifluoromethylphenoxy)ethyl]amide}]	≤ 10
CS(=O)(=O)c1ccccc1S(=O)(=O)NC[C@@H](Oc1ccc(C(F)(F)F)cc1)[C@H]1CCNC1 [Example 3-29, 2-Methanesulfonyl-N-[(S)-2-(S)-pyrrolidin-3-yl-2-(4-trifluoromethylphenoxy)ethyl]benzenesulfonamide]	≤ 10
CS(=O)(=O)c1cccc(S(=O)(=O)NC[C@@H](Oc2ccc(C(F)(F)F)cc2)[C@H]2CCNC2)c1 [Example 3-28, 3-Methanesulfonyl-N-[(S)-2-(S)-pyrrolidin-3-yl-2-(4-trifluoromethylphenoxy)ethyl]benzenesulfonamide]	≤ 100
O=[N+]([O-])c1ccc(S(=O)(=O)NC[C@@H](Oc2ccc(C(F)(F)F)cc2)[C@H]2CCNC2)cc1 [Example 3-22, 4-Nitro-N-[(S)-2-(S)-pyrrolidin-3-yl-2-(4-trifluoromethylphenoxy)ethyl]benzenesulfonamide]	≤ 10
O=S(=O)(C[C@@H](Oc1ccc(C(F)(F)F)cc1)[C@H]1CCNC1)NCc1ccccc1 [Example 5, (S)-2-(S)-Pyrrolidin-3-yl-2-(4-trifluoromethylphenoxy)ethanesulfonic Acid Benzylamide]	≤ 10
O=S(=O)(NC[C@@H](Oc1ccc(C(F)(F)F)cc1)[C@H]1CCNC1)c1ncn[nH]1 [Example 3-15]	≤ 100
O=S(=O)(NC[C@@H](Oc1ccc(C(F)(F)F)cc1)[C@H]1CCNC1)c1cccc2nonc12 [Example 3-16, Benzo[1,2,5]oxadiazole-4-sulfonic acid [(S)-2-(S)-pyrrolidin-3-yl-2-(4-trifluoromethylphenoxy)ethyl]amide]	≤ 10
N#Cc1ccc(S(=O)(=O)NC[C@@H](Oc2ccc(C(F)(F)F)cc2)[C@H]2CCNC2)cc1 [Example 3-20, 4-Cyano-N-[(S)-2-(S)-pyrrolidin-3-yl-2-(4-trifluoromethylphenoxy)ethyl]benzenesulfonamide]	≤ 10
O=S(=O)(NC[C@@H](Oc1ccc(C(F)(F)F)cc1)[C@@H]1CCNC1)c1ccccc1 (stereo in doubt) [Example 3-18, N-[(R)-2-(S)-Pyrrolidin-3-yl-2-(4-trifluoromethylphenoxy)ethyl]benzenesulfonamide]	≤ 10
CNS(=O)(=O)N(C)C[C@@H](Oc1ccc(C(F)(F)F)cc1)[C@H]1CCNC1 [Example 1]	≤ 10
COCCc1ccc(S(=O)(=O)NC[C@@H](Oc2ccc(C(F)(F)F)cc2)[C@H]2CCNC2)cc1 [Example 3-24, 4-(2-Methoxyethyl)-N-[(S)-2-(S)-pyrrolidin-3-yl-2-(4-trifluoromethylphenoxy)ethyl]benzenesulfonamide]	≤ 10
CS(=O)(=O)NC[C@@H](Oc1ccc(C(F)(F)F)cc1)[C@@H]1CCNC1 (stereo in doubt) [Example 3-2, N-[(R)-2-(S)-Pyrrolidin-3-yl-2-(4-trifluoromethylphenoxy)ethyl]-methanesulfonamide]	≤ 100

SMILES	IC50 [nM]
NS(=O)(=O)c1ccc(S(=O)(=O)NCC(Oc2ccc(C(F)(F)F)cc2)C2CCNC2)cc1 [Example 3-30, Benzene-1,4-disulfonic acid lamide 4-{[(S)-2-(S)-pyrrolidin-3-yl-2-(4-trifluoromethylphenoxy)ethyl]amide}]	≤ 10
O=S(=O)(NC[C@@H](Oc1ccc(C(F)(F)F)cc1)[C@H]1CCNC1)c1ccc(-n2cccn2)cc1 [Example 3-32, 4-Pyrazol-1-yl-N-[(S)-2-(S)-pyrrolidin-3-yl-2-(4-trifluoromethylphenoxy)ethyl]benzenesulfonamide]	≤ 10
CN(C)S(=O)(=O)NC[C@@H](Oc1ccc(C(F)(F)F)cc1)[C@H]1CCNC1 [Example 3-11]	≤ 10
O=S(=O)(NC[C@@H](Oc1ccc(C(F)(F)F)cc1)[C@H]1CCNC1)c1cnc[nH]1 [Example 3-13, 3H-Imidazole-4-sulfonic acid [(S)-2-(S)-pyrrolidin-3-yl-2-(4-trifluoromethylphenoxy)ethyl]amide]	≤ 100
O=S(=O)(NC[C@@H](Oc1ccc(C(F)(F)F)cc1)[C@H]1CCNC1)c1ccc(-c2cnco2)cc1 [Example 2, 4-Oxazol-5-yl-N—[(S)-2-(S)-pyrrolidin-3-yl-2-(4-trifluoromethylphenoxy)ethyl]benzenesulfonamide]	≤ 10
CS(=O)(=O)c1ccc(S(=O)(=O)NC[C@@H](Oc2ccc(C(F)(F)F)cc2)[C@H]2CCNC2)cc1 [Example 3-27, 4-Methanesulfonyl-N-[(S)-2-(S)-pyrrolidin-3-yl-2-(4-trifluoromethylphenoxy)ethyl]benzenesulfonamide]	≤ 10
CC(=O)Nc1cccc(S(=O)(=O)NC[C@@H](Oc2ccc(C(F)(F)F)cc2)[C@H]2CCNC2)c1 [Example 3-26, N-{3-[(S)-2-(S)-Pyrrolidin-3-yl-2-(4-trifluoromethylphenoxy)ethylsulfamoyl]phenyl}acetamide]	≤ 10
CC(C)S(=O)(=O)NC[C@@H](Oc1ccc(C(F)(F)F)cc1)[C@H]1CCNC1 [Example 3-7, Propane-2-sulfonic acid [(S)-2-(S)-pyrrolidin-3-yl-2-(4-trifluoromethylphenoxy)ethyl]amide]	≤ 100
O=S(=O)(NCC(Oc1ccc(C(F)(F)F)cc1)C1CCNC1)c1ccc(-c2nnn[nH]2)cc1 [Example 3-35, N[(S)-2-(S)-Pyrrolidin-3-yl-2-(4-trifluoromethylphenoxy)ethyl]-4-(1H-tetrazol-5-yl)-benzenesulfonamide]	≤ 100
CS(=O)(=O)CS(=O)(=O)NC[C@@H](Oc1ccc(C(F)(F)F)cc1)[C@H]1CCNC1 [Example 3-12, C-Methanesulfonyl-N-[(S)-2-(S)-pyrrolidin-3-yl-2-(4-trifluoromethylphenoxy)ethyl]methanesulfonamide]	≤ 10
CNS(=O)(=O)C[C@@H](Oc1ccc(C(F)(F)F)cc1)[C@H]1CCNC1 [Example 6, (S)-2-(S)-Pyrrolidin-3-yl-2-(4-trifluoromethylphenoxy)ethanesulfonic Acid Methylamide]	≤ 10
NS(=O)(=O)C[C@@H](Oc1ccc(C(F)(F)F)cc1)[C@H]1CCNC1 [Example 4, (S)-2-(S)-Pyrrolidin-3-yl-2-(4-trifluoromethylphenoxy)ethanesulfonic Acid Amide]	≤ 10
O=S(=O)(NC[C@@H](Oc1ccc(C(F)(F)F)cc1)[C@H]1CCNC1)c1ccc(-c2ncccn2)cc1 [Example 3-34, 4-Pyrimidin-2-yl-N-[(S)-2-(S)-pyrrolidin-3-yl-2-(4-trifluoromethylphenoxy)ethyl]benzenesulfonamide]	≤ 10
CN(C[C@@H](Oc1ccc(C(F)(F)F)cc1)[C@H]1CCNC1)S(C)(=O)=O [Example 3-3, N-Methyl-N-[(S)-2-(S)-pyrrolidin-3-yl-2-(4-trifluoromethylphenoxy)ethyl]-methanesulfonamide]	≤ 10
O=S(=O)(NC[C@@H](Oc1ccc(C(F)(F)F)cc1)[C@H]1CCNC1)c1ccccc1 [Example 3-19, N-[(S)-2-(S)-Pyrrolidin-3-yl-2-(4-trifluoromethylphenoxy)ethyl]benzenesulfonamide]	≤ 10
Cc1cc(C)n(-c2ccc(S(=O)(=O)NCC(Oc3ccc(C(F)(F)F)cc3)C3CCNC3)cc2)n1 [Example 3-33, 4-(3,5-Dimethyl-pyrazol-1-yl)-N-(S)-2-(S)-pyrrolidin-3-yl-2-(4-trifluoromethylphenoxy)ethyl]benzenesulfonamide]	≤ 10
O=S(=O)(NC[C@@H](Oc1ccc(C(F)(F)F)cc1)[C@H]1CCNC1)C1CC1 [Example 3-8, Cyclopropanesulfonic acid [(S)-2-(S)-pyrrolidin-3-yl-2-(4-trifluoromethylphenoxy)ethyl]amide]	≤ 10
